Measurements taken from patent US20220395464A1, “ORALLY ADMINISTERED SOLID DOSAGE FORM DRUG” (ASCENTAWITS PHARMACEUTICALS, LTD., priority 2019, published 2022).
In brackets after ≈: the same amount, converted by molar mass. Entries after “also recorded” stand apart in the source; their conditions may differ. Read-outs that look alike come from different tables or passages of the source.

Assay: Solubility study of AST-3424 (shaking at 25° C., HPLC content)
Format: physicochemical
Conditions: for solubility / solubility at 1 h / solubility at 4 h / solubility at 8 h / solubility at 24 h / solubility at 48 h: thermodynamic from solid; for solubility at 1 h / solubility at 4 h / solubility at 8 h / solubility at 24 h / solubility at 48 h: read-out: Content (solubility test)
Method: An appropriate amount of AST-3424 (hereinafter called active pharmaceutical ingredients or API) was taken and placed in a suitable container containing 40 ml of the mentioned-above solutions (20 ml for organic solvents) respectively until excess oil droplets of AST-3424 existed in the solution.
Samples were put in a constant temperature shaking incubator at 25° C. and shaken at a proper speed (100 rpm). The samples were taken and checked pH values at each appointed time as specified in Table 1. Then, the samples were centrifuged (1000 rpm, 10 minutes), and added the corresponding solution or organic solvent (to dissolve the API for solubility study) to dilute to an appropriate concentration for HPLC analysis, so as to obtain solubility data. It should be noted that the dilution ratio after test was accurately recorded.
In the solubility study, for a determination of sample contents, 1 ml of culture medium were measured respectively, and then centrifuged at 1000 rpm for 10 minutes. Subnatant after centrifugation were collected respectively for HPLC analysis. In the solution stability study, the samples may be provided directly for HPLC analysis.
The contents were determined by a HPLC method: AST-3424 was used as an external standard for quantification.
According to the solution stability results, AST-3424 is very unstable in the acetate buffer of pH 4.5. Therefore, the phosphate buffer of pH 6.8, the phosphate buffer of pH 7.4, the alkaline borate buffer of pH 10.0, and the purified water were selected for the solubility study. An appropriate amount of AST-3424 was weighed and placed in 40 ml of medium (8 ml ethanol/propylene glycol (50:50, v/v) was used), until excess flocci was present in the solution.

[1] = alkaline borate buffer, 25 °C, pH 10, aqueous buffer, pH 10.0 (Alkaline borate buffer)
[2] = ethanol/propylene glycol (50:50, v/v), 25 °C, organic solvent or mixture, Ethanol/Propylene glycol (50:50, v/v)
[3] = phosphate buffer of pH 6.8, 25 °C, pH 6.8, aqueous buffer, pH 6.8 (Phosphate buffer)
[4] = phosphate buffer of pH 7.4, 25 °C, pH 7.4, aqueous buffer, pH 7.4 Phosphate buffer
[5] = phosphate buffer, 25 °C, pH 7.4, aqueous buffer, pH 7.4 Phosphate buffer
[6] = purified water, 25 °C, water, Purified water

With C[C@H](OP(=O)(N1CC1)N1CC1)c1ccc([N+](=O)[O-])c(Oc2cccc(C(=O)N(C)C)c2)c1 [AST-3424, (S)-1-(3-(3-N,N-Dimethylaminocarbonyl)phenoxy-4-nitrophenyl)-1-ethyl-N,N′-bis(ethylene) phosphoramidate] the “Solubility, descriptive terms” value (Purified water) was “Sparingly soluble”, the solubility [1] was roughly 23 mg/mL (≈ 50 mM) and the solubility at 1 h [1] was 23.5 mg/mL (≈ 51 mM). For the same molecule, the solubility at 4 h [1] was 23.6 mg/mL (≈ 51.2 mM), the solubility at 8 h [1] was 23.5 mg/mL (≈ 51 mM) and the solubility at 24 h [1] was 23.5 mg/mL (≈ 51 mM). For the same molecule, the solubility at 48 h [1] was 23.7 mg/mL (≈ 51.4 mM), the “Solubility, descriptive terms” value (ethanol/propylene glycol (50:50, v/v)) was “easily soluble; also recorded: Freely soluble (FS)” and the solubility at 1 h [2] was 271 mg/mL (≈ 589 mM). The solubility at 4 h [2] was 302 mg/mL (≈ 657 mM), the solubility at 8 h [2] was 301 mg/mL (≈ 654 mM) and the solubility at 24 h [2] was 299 mg/mL (≈ 649 mM). The solubility at 48 h [2] was 274 mg/mL (≈ 595 mM), the solubility (ethanol/propylene glycol (50:50, v/v), 25 °C, organic solvent or mixture, ethanol/propylene glycol (50:50, v/v)) was greater than 270 mg/mL and the “Solubility, descriptive terms” value (pH 6.8 (Phosphate buffer)) was “Sparingly soluble”. For the same molecule, the “Solubility, descriptive terms” value (pH 7.4 (Phosphate buffer)) was “Sparingly soluble”, the “Solubility, descriptive terms” value (pH 10.0 (Alkaline borate buffer)) was “Sparingly soluble” and the solubility at 1 h [3] was 23 mg/mL (≈ 50 mM). It also gave a solubility at 4 h [3] of 22.9 mg/mL (≈ 49.8 mM), a solubility at 8 h [3] of 23 mg/mL (≈ 50 mM) and a solubility at 24 h [3] of 22.6 mg/mL (≈ 49.1 mM). For the same molecule, the solubility at 48 h [3] was 22.1 mg/mL (≈ 47.9 mM), the solubility at 1 h [4] was 23.7 mg/mL (≈ 51.4 mM) and the solubility at 4 h [4] was 23.5 mg/mL (≈ 51 mM). For the same molecule, the solubility at 48 h [4] was 23.4 mg/mL (≈ 50.8 mM), the solubility (phosphate buffer, 25 °C, pH 6.8, aqueous buffer, pH 6.8 (Phosphate buffer)) was roughly 23 mg/mL (≈ 50 mM) and the solubility (phosphate buffer, 25 °C, pH 7.4, aqueous buffer, pH 7.4 (Phosphate buffer)) was roughly 23 mg/mL (≈ 50 mM). For the same molecule, the solubility at 8 h [5] was 23.6 mg/mL (≈ 51.2 mM), the solubility at 24 h [5] was 23.7 mg/mL (≈ 51.4 mM) and the solubility (purified water, 25 °C, water) was roughly 20 mg/mL (≈ 43.4 mM). It also gave a solubility at 1 h [6] of 20.9 mg/mL (≈ 45.4 mM), a solubility at 4 h [6] of 20.1 mg/mL (≈ 43.7 mM) and a solubility at 8 h [6] of 19.7 mg/mL (≈ 42.7 mM). The solubility at 24 h [6] was 18.8 mg/mL (≈ 40.9 mM) and the solubility at 48 h [6] was 17.8 mg/mL (≈ 38.6 mM).
